Test results published in patent EP4722215A1, “AMORPHOUS SUBSTANCE AND CRYSTAL OF DIOXOPIPERIDINE COMPOUND OR PHARMACEUTICALLY ACCEPTABLE SALT THEREOF, PREPARATION METHOD, AND USE” (Jiangsu Hengrui Pharmaceuticals Co., Ltd., priority 2023, dated 2024).
Counter-ions that a name gives are not always drawn.

Tests used:
[1] = Influencing factor stability study (open containers, high temperature / high humidity, 30 days); assay type: physicochemical
Experimental: Influencing factor stability study: Samples of the free-state form were taken, spread in open containers, and left to stand under high-temperature (40 °C and 60 °C) and high-humidity (RH 75% and RH 92.5%) conditions for 30 days to study its stability.
Influencing factor stability study of salt forms: Samples of the salt forms were taken, spread in open containers, and left to stand under high-temperature (40 °C and 60 °C) and high-humidity (RH 75%) conditions for 30 days to study their stability.

[2] = Long-term/accelerated stability study (sealed in aluminum foil bags); assay type: physicochemical; conditions: for Crystal form: up to 6 months
Text: The results are shown below. Table 16
The results are shown below. Table 20

[3] = target: T1, androgen receptor (AR) (Homo sapiens, UniProt P10275, T878A); experiment: Degradation activity on androgen receptor in LNCaP cells (AR ELISA); assay type: cell-based; conditions: 0.1 nM R1881, 24 h
T1 construct: host or cells: LNCaP
Experimental: After five washes, 100 µL of detection antibody working solution was added. […] After five washes, 100 µL of enzyme conjugate working solution was added. […] After five washes, 100 µL of substrate solution was added.

[4] = Dynamic vapor sorption (DVS) hygroscopicity; assay type: physicochemical
[5] = Pharmacokinetic evaluation in cynomolgus monkeys, intragastric administration, plasma LC/MS/MS; assay type: in vivo; conditions: both sexes, cynomolgus monkey, po, i.g., 2.0 mg/kg
Experimental: Cynomolgus monkeys were used as test animals.
Eight cynomolgus monkeys (half male and half female, provided by Shanghai Medicilon Inc.) were evenly divided into 2 groups.
Access to food and ad libitum access to water were given 3 h after administration.

[6] = in vivo; conditions: both, beagle, dog, plasma, po, 2 mg/kg
Experimental: Beagles were used as test animals. The plasma concentrations of a compound of the present disclosure in beagles at different time points after intragastric (i.g.) administration were determined using an LC/MS/MS method. The pharmacokinetic behavior of the compound of the present disclosure in beagles was studied, and its pharmacokinetic profile was evaluated.
Eight beagles (half male and half female, provided by Jiangsu Johnbio Biotechnology Co., Ltd.) were evenly divided into 2 groups. The animals were fasted overnight and then subjected to intragastric administration.
The administration dose was 2.0 mg/kg, and the administration volume was 5.0 mL/kg.
The samples were then placed into EDTA-K2 anticoagulation test tubes and centrifuged at 10,000 rpm for 2 min (4 °C), and plasma was separated within 1 h and stored at -80 °C before analysis. The procedures from the blood collection to the centrifugation were performed under ice-bath conditions. Access to food was given 3 h after administration.
After administration of different concentrations of the test compounds, the plasma concentrations of the test compounds in the beagles were determined as follows: 50 µL of each of the beagle plasma samples collected at various time points after administration was taken; 25 µL of camptothecin (1 µg/mL) and 450 µL of acetonitrile were added to precipitate protein, and the mixture was vortex-mixed and then centrifuged at 3700 rpm for 10 min; 0.5 µL of the supernatant was taken for LC/MS/MS analysis.

T1 sequence (P10275 whole entry T878A): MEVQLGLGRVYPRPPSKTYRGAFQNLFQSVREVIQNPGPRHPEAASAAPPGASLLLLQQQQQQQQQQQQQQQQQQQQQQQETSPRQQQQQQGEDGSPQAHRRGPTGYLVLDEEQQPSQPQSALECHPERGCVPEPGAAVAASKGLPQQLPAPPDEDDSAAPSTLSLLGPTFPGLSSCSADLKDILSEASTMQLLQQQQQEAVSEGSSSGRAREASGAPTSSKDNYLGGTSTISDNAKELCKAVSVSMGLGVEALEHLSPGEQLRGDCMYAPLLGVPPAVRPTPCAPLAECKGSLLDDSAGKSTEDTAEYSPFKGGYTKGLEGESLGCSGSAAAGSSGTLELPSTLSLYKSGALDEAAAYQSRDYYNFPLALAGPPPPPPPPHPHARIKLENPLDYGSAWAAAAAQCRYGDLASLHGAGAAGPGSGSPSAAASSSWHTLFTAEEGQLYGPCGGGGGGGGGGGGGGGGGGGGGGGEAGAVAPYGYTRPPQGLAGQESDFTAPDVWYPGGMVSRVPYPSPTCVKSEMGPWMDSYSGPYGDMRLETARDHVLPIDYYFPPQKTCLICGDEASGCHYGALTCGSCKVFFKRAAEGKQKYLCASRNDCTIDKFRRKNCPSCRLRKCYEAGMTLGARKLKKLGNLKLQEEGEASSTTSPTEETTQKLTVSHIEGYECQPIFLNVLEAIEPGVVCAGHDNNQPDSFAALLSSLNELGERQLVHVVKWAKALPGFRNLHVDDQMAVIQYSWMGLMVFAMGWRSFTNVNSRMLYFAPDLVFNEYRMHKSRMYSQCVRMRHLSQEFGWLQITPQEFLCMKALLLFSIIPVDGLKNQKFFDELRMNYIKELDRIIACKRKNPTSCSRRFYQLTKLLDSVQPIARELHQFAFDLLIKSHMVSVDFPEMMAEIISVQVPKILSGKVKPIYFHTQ
T1 sequence (Q96SW2 whole entry partner): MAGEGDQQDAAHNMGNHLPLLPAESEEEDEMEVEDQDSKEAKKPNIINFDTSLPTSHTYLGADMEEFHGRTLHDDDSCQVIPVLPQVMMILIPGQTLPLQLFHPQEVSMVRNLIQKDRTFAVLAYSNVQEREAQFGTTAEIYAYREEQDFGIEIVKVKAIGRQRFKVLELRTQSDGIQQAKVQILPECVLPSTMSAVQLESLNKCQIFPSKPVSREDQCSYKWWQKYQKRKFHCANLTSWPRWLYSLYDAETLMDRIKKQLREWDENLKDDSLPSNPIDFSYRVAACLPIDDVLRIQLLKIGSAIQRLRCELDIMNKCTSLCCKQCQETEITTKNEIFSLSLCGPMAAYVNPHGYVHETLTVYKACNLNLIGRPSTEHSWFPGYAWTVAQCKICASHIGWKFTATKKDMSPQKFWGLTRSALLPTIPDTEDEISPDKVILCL

Row | Structure (SMILES) | Crystal form ([1]; 40 °C, 5 days) | Purity (%) ([1]; 40 °C, 5 days) | Crystal form ([1]; 40 °C, 10 days) | Purity (%) ([1]; 40 °C, 10 days) | Purity (%) ([1]; 40 °C, 30 days) | Crystal form ([1]; 60 °C, 5 days) | Purity (%) ([1]; 60 °C, 5 days) | Crystal form ([1]; 60 °C, 10 days) | Purity (%) ([2]; 25 °C/60% RH, 1 month) | Purity (%) ([2]; 25 °C/60% RH, 2 months) | Purity (%) ([2]; 25 °C/60% RH, 3 months) | Purity (%) ([2]; 25 °C/60% RH, 6 months) | Purity (%) ([2]; 25 °C/60% RH, Initial) | Crystal form ([2]; 25 °C/60% RH) | Purity (%) ([2]; 40 °C/75% RH, 1 month) | Purity (%) ([2]; 40 °C/75% RH, 2 months) | Purity (%) ([2]; 40 °C/75% RH, 3 months) | Purity (%) ([2]; 40 °C/75% RH, 6 months) | Purity (%) ([2]; 40 °C/75% RH, Initial) | Crystal form ([2]; 40 °C/75% RH) | also measured
1 | C[C@H]1CC2(CCN(c3ccc(C(=O)N4CCC(CN5CCN(c6cccc(N[C@H]7CCC(=O)NC7=O)c6)CC5)CC4)cc3F)CC2)CN1c1ccc(C#N)c(Cl)c1 [Amorphous form, 2-chloro-4-((S)-8-(4-(4-((4-(3-(((S)-2,6-dioxopiperidin-3-yl)amino)phenyl)piperazin-1-yl)methyl)piperidine-1-carbonyl)-2-fluorophenyl)-3-methyl-2,8-diazaspiro[4.5]decan-2-yl)benzonitrile] | No change | 98.7% | No change | 98.6% | 98.6% | No change | 98.6% | No change | 98.7% | 98.5% | 98.5% | 98.5% | 98.8% | No change | 98.7% | 98.4% | 98.4% | 98.3% | 98.8% | No change | Crystal form ([1]; 40 °C, 30 days): No change; Purity (%) ([1]; 60 °C, 10 days): 98.6%; Crystal form ([1]; 60 °C, 30 days): No change; Purity (%) ([1]; 60 °C, 30 days): 98.4%; Crystal form ([1]; 75% RH, 5 days): No change; Purity (%) ([1]; 75% RH, 5 days): 98.7%; Crystal form ([1]; 75% RH, 10 days): No change; Purity (%) ([1]; 75% RH, 10 days): 98.7%; Crystal form ([1]; 75% RH, 30 days): No change; Purity (%) ([1]; 75% RH, 30 days): 98.7%; Crystal form ([1]; 92.5% RH, 5 days): No change; Purity (%) ([1]; 92.5% RH, 5 days): 98.7%; Crystal form ([1]; 92.5% RH, 10 days): No change; Purity (%) ([1]; 92.5% RH, 10 days): 98.7%; Crystal form ([1]; 92.5% RH, 30 days): No change; Purity (%) ([1]; 92.5% RH, 30 days): 98.6%; Purity (%) ([1]; Initial, 0 days): 98.8%; chemical stability ([1]; high-temperature and high-humidity conditions): good chemical stability; physical and chemical stability ([2]; long-term accelerated conditions for 6 months): good physical and chemical stability
2 | C[C@H]1CC2(CCN(c3ccc(C(=O)N4CCC(CN5CCN(c6cccc(N[C@H]7CCC(=O)NC7=O)c6)CC5)CC4)cc3F)CC2)CN1c1ccc(C#N)c(Cl)c1 [Crystal form I of hydrochloride] | No change | 97.5% | No change | 96.9% | 95.3% | No change | 97.2% | No change |  |  |  |  |  |  |  |  |  |  |  |  | Purity (%) ([1]; 60 °C, 10 days): 96.5%; Purity (%) ([1]; 60 °C, 30 days): 94.5%; Crystal form ([1]; 75% RH, 5 days): No change; Purity (%) ([1]; 75% RH, 5 days): 97.5%; Crystal form ([1]; 75% RH, 10 days): No change; Purity (%) ([1]; 75% RH, 10 days): 97.1%; Purity (%) ([1]; 75% RH, 30 days): 96.5%; Purity (%) ([1]; Initial, 0 days): 98.1%
3 | C[C@H]1CC2(CCN(c3ccc(C(=O)N4CCC(CN5CCN(c6cccc(N[C@H]7CCC(=O)NC7=O)c6)CC5)CC4)cc3F)CC2)CN1c1ccc(C#N)c(Cl)c1 [Crystal form B of succinate] |  |  |  |  |  |  |  |  | 98.5% | 98.5% | 98.7% | 98.6% | 98.7% | No change | 98.5% | 98.5% | 98.5% | 98.3% | 98.7% | No change | 
4 | C[C@H]1CC2(CCN(c3ccc(C(=O)N4CCC(CN5CCN(c6cccc(N[C@@H]7CCC(=O)NC7=O)c6)CC5)CC4)cc3F)CC2)CN1c1ccc(C#N)c(Cl)c1 [Example 1-2, 2-Chloro-4-((S)-8-(4-(4-((4-(3-(((R)-2,6-dioxopiperidin-3-yl)amino)phenyl)piperazin-1-yl)methyl)piperidine-1-carbonyl)-2-fluorophenyl)-3-methyl-2,8-diazaspiro[4.5]decan-2-yl)benzonitrile] |  |  |  |  |  |  |  |  |  |  |  |  |  |  |  |  |  |  |  |  | DC50 [3]: 14.2 nM
5 | C[C@H]1CC2(CCN(c3ccc(C(=O)N4CCC(CN5CCN(c6cccc(NC7CCC(=O)NC7=O)c6)CC5)CC4)cc3F)CC2)CN1c1ccc(C#N)c(Cl)c1 (stereo partly drawn) [Example 1, 2-Chloro-4-((3S)-8-(4-(4-((4-(3-((2,6-dioxopiperidin-3-yl)amino)phenyl)piperazin-1-yl)methyl)piperidine-1-carbonyl)-2-fluorophenyl)-3-methyl-2,8-diazaspiro[4.5]decan-2-yl)benzonitrile] |  |  |  |  |  |  |  |  |  |  |  |  |  |  |  |  |  |  |  |  | DC50 [3]: 2.5 nM
6 | C[C@H]1CC2(CCN(c3ccc(C(=O)N4CCC(CN5CCN(c6cccc(N[C@H]7CCC(=O)NC7=O)c6)CC5)CC4)cc3F)CC2)CN1c1ccc(C#N)c(Cl)c1 [Amorphous form of maleate] |  |  |  |  |  |  |  |  | 98.9% | 98.9% | 98.9% | 98.7% | 98.9% | No change | 98.7% | 98.6% | 98.3% | 94.8% | 98.9% | No change | 
7 | C[C@H]1CC2(CCN(c3ccc(C(=O)N4CCC(CN5CCN(c6cccc(N[C@H]7CCC(=O)NC7=O)c6)CC5)CC4)cc3F)CC2)CN1c1ccc(C#N)c(Cl)c1 [Crystal form A of mandelate] | No change | 98.6% | No change | 98.6% | 98.4% | No change | 98.4% | No change | 99.4% | 99.3% | 99.3% | 99.3% | 99.4% | No change | 99.4% | 99.3% | 99.3% | 98.9% | 99.4% | No change | hygroscopic weight gain ([4]; accelerated test conditions, 70% RH): about 1.047%; crystal form before and after DVS testing (XRPD) ([4]; before and after DVS testing): did not change; hygroscopic weight gain ([4]; extreme conditions, 90% RH): about 2.245%; hygroscopic weight gain ([4]; normal storage conditions, 25 °C and 60% RH): about 0.833%; Crystal form ([1]; 40 °C, 30 days): No change; Purity (%) ([1]; 60 °C, 10 days): 98.5%; Crystal form ([1]; 60 °C, 30 days): No change; Purity (%) ([1]; 60 °C, 30 days): 98.2%; Crystal form ([1]; 75% RH, 5 days): No change; Purity (%) ([1]; 75% RH, 5 days): 98.5%; Crystal form ([1]; 75% RH, 10 days): No change; Purity (%) ([1]; 75% RH, 10 days): 98.5%; Crystal form ([1]; 75% RH, 30 days): No change; Purity (%) ([1]; 75% RH, 30 days): 98.5%; Purity (%) ([1]; Initial, 0 days): 98.6%
8 | C[C@H]1CC2(CCN(c3ccc(C(=O)N4CCC(CN5CCN(c6cccc(N[C@H]7CCC(=O)NC7=O)c6)CC5)CC4)cc3F)CC2)CN1c1ccc(C#N)c(Cl)c1 [Example 1-1, 2-Chloro-4-((S)-8-(4-(4-((4-(3-(((S)-2,6-dioxopiperidin-3-yl)amino)phenyl)piperazin-1-yl)methyl)piperidine-1-carbonyl)-2-fluorophenyl)-3-methyl-2,8-diazaspiro[4.5]decan-2-yl)benzonitrile] |  |  |  |  |  |  |  |  |  |  |  |  |  |  |  |  |  |  |  |  | DC50 [3]: 4.2 nM
9 | N#Cc1ccc(O[C@H]2CC[C@H](NC(=O)c3ccc(N4CCC(CN5CCN(c6cc7c(cc6F)C(=O)N(C6CCC(=O)NC6=O)C7=O)CC5)CC4)nn3)CC2)cc1Cl (stereo partly drawn) [ARV-110] |  |  |  |  |  |  |  |  |  |  |  |  |  |  |  |  |  |  |  |  | AUC(0-t) ([5]; read-out: Area under curve AUC0-t): 282 ng·h/mL; CL/F ([5]; read-out: Clearance rate CL/F): 44.6 mL/min/kg; Cmax ([5]; read-out: Plasma concentration Cmax): 15.9 ng/mL; AUC(0-t) [6]: 239 ng·h/mL; CL/F [6]: 70.9 mL/min/kg; Cmax [6]: 13 ng/mL
